Measured values published in patent US7144591B2, “Composition containing citronella java oil and use thereof for repelling insects” (priority 2002, dated 2006).

Test system: Aedes aegypti (yellow fever mosquitoes)
Assay: Repellent activity with respect to mosquitoes, treated forearm in cage (Swiss Tropic Institute method)
Format: in vivo
Conditions: 2 ml on 250 cm^2 forearm, 400 mosquitoes in cage, hourly 10 min exposure

**Q.** `O=C(O)CC(O)(CC(=O)O)C(=O)O` [PC4, citric acid] was tested. Which “repellent activity with respect to mosquitoes (result in words)” value did it give?
**A.** surprisingly bad results
